Calls of active or inactive are those of the source. No cut-off for these calls is given here.
Experiments:
[1] = system: Rattus norvegicus; assay: Narcotic analgesic activity in po dosed fasted Sprague-Dawley rat measured at 60 mins by D'Amour-Smith tail-flick test; assay type: functional; settings: Rattus norvegicus, Sprague-Dawley, Tail, po, 1 h; read-out: ED50
[2] = system: Mus musculus; assay: Analgesic activity in sc dosed Swiss-Webster mouse assessed as reduction of acetylcholine-induced writhing; assay type: functional; settings: Mus musculus, Swiss-Webster, sc; read-out: ED50
[3] = system: Mus musculus; assay: Analgesic activity in po dosed Swiss-Webster mouse assessed as reduction of acetylcholine-induced writhing; assay type: functional
[4] = system: Rattus norvegicus; assay: Analgesic activity in po dosed rat assessed as reduction of intraarterial bradykinin-induced pain response measured up to 120 mins; assay type: functional; settings: 2 h
[5] = system: Rattus norvegicus; assay: Hypoglycemic activity in glucose/glycogen loaded Sprague-Dawley rat assessed as reduction of blood glucose level at 87 mg/kg, po; assay type: functional, organism-based; parameters: dose 87 mg/kg
[6] = system: Rattus norvegicus; assay: Hypoglycemic activity in glucose loaded Sprague-Dawley rat assessed as reduction of blood glucose level at 94 mg/kg, po relative to control; assay type: functional; parameters: scale not given: the % may be the effect or the level left
[7] = system: Rattus norvegicus; assay: Narcotic analgesic activity in fasted Sprague-Dawley rat at 240 mg/kg, po measured at 60 mins by D'Amour-Smith tail-flick test relative to control; assay type: functional
[8] = system: Rattus norvegicus; assay: Narcotic analgesic activity in fasted Sprague-Dawley rat at 240 mg/kg, po measured at 15 mins by D'Amour-Smith tail-flick test relative to control; assay type: functional
[9] = system: Mus musculus; assay: Analgesic activity in Swiss-Webster mouse assessed as reduction of acetylcholine-induced writhing at 50 mg/kg, po relative to control; assay type: functional; parameters: scale not given: the % may be the effect or the level left
[10] = system: Rattus norvegicus; assay: Toxicity in Sprague-Dawley rat assessed as tremor at 240 mg/kg, po; assay type: organism-based; parameters: dose 240 mg/kg, route oral; settings: in vivo
[11] = system: Rattus norvegicus; assay: Toxicity in Sprague-Dawley rat assessed as rigidity at 240 mg/kg, po; assay type: organism-based; parameters: dose 240 mg/kg, route oral; settings: in vivo
[12] = system: Rattus norvegicus; assay: Hypoglycemic activity in glucose loaded Sprague-Dawley rat assessed as reduction of blood glucose level at 100 mg/kg, po after 30 mins relative to control; assay type: functional; parameters: scale not given: the % may be the effect or the level left
[13] = system: Rattus norvegicus; assay: Hypoglycemic activity in glucose loaded Sprague-Dawley rat assessed as reduction of blood glucose level at 100 mg/kg, po measured at 1 hr; assay type: functional, organism-based; parameters: dose 100 mg/kg
[14] = system: Rattus norvegicus; assay: Hypoglycemic activity in glucose loaded Sprague-Dawley rat assessed as reduction of blood glucose level at 100 mg/kg, po measured at 1.5 to 2 hrs; assay type: functional, organism-based; parameters: dose 100 mg/kg
[15] = system: Rattus norvegicus; assay: Narcotic analgesic activity in fed Sprague-Dawley rat at 120 mg/kg, sc measured at 30 mins by D'Amour-Smith tail-flick test; assay type: functional; settings: route subcutaneous
[16] = system: Rattus norvegicus; assay: Toxicity in Sprague-Dawley rat assessed as tremor at 120 mg/kg, sc; assay type: organism-based; parameters: dose 120 mg/kg, route subcutaneous; settings: in vivo
[17] = system: Mus musculus; assay: Toxicity in Swiss-Webster mouse assessed as hyperactivity at 75 mg/kg, sc; assay type: organism-based; parameters: dose 75 mg/kg, route subcutaneous; settings: in vivo
[18] = system: Rattus norvegicus; assay: Hypoglycemic activity in Sprague-Dawley rat assessed as reduction of blood glucose level at 88 mg/kg, po by glucagon-impaired glucose disposal test relative to control; assay type: functional; parameters: scale not given: the % may be the effect or the level left

## COC(=O)[C@H]1CCCN(C)[C@H]1c1cccs1 (relative stereo)
[1]
  ED50: 112 mg/kg
[2]
  ED50: 3.8 mg/kg
[3]
  ED50: 11 mg/kg
[4]
  ED50: 111 mg/kg
[5]
  Activity: inactive

## COC(=O)[C@H]1C[C@H]2CC[C@@H]3[C@H]1c1sccc1C[N+]23[O-]
[6]
  Activity: <20%
[7]
  Activity: 14%
[8]
  Activity: 41%
[9]
  Activity: 67%
[10]
  Activity: Toxic
[11]
  Activity: Toxic

## COC(=O)[C@H]1C[C@H]2CC[C@@H]3[C@H]1c1cc(O)ccc1CN23
[12]
  Activity: 33%
[13]
  Activity: inactive
[14]
  Activity: inactive

## COC(=O)[C@H]1C[C@H]2CC[C@H]([C@H]1Cc1ccccc1)N2C.Cl
[15]
  Activity: <20%
[2]
  ED50: 5.8 mg/kg
[16]
  Activity: Toxic
[17]
  Activity: Toxic
[18]
  Activity: 21%

Source: ChEMBL document CHEMBL3272053, “(exo, exo)-2-Aryltropane-3-carboxylic esters, hypoglycemic agents with accompanying analgesic activity” (J Med Chem, 1978)
